The text below walks through data of patent US20220273596A1, “SYNERGISTIC COMBINATION OF S-KETOROLAC AND PREGABALIN IN A PHARMACEUTICAL COMPOSITION FOR THE TREATMENT OF NEUROPATHIC PAIN” (priority 2019, published 2022).

Assay [1] relates to mechanical hyperalgesia in rats with chronic constriction injury (CCI) of the sciatic nerve. Briefly: Von Frey test (mechanical hyperalgesia, 15-gram filament) in rats with chronic constriction injury of the sciatic nerve. In kind it is in vivo, Male Wistar rats. Conditions: for dose dependence of anti-hyperalgesic effects: given orally, alone; for Antihyperalgesic efficacy: Maximal efficacy (AUC: X ± SE): most efficacious dose po: Pregabalin 31.6 mg/Kg, S-ketorolac 3.16 mg/Kg, AUC of 180-min temporal course, n=6; for maximal antihyperalgesic effect (AUC): pregabalin 31.6 mg/Kg po, S-Ket 3.16 mg/Kg po; for Antihyperalgesic efficacy: Relative efficacy: relative to pregabalin, Pregabalin 31.6 mg/Kg po, S-ketorolac 3.16 mg/Kg po. How it is done: (§1) Male Wistar rats were used in the experiments. […] The animals were kept in polycarbonate cages under controlled temperature and light conditions, with 12-hour light/darkness cycles and free access to food and water. All experiments were performed during the light phase of the light/darkness cycles. The animals were used and handled according to the international guidelines on Ethical Standards for Investigations of Experimental Pain established by the Committee for Research and Ethical Issues of the International Association for the Study of Pain. The number of experiment animals was kept to a minimum (n=6), and at the end of the experimental assessments the animals were sacrificed using carbon dioxide.
(§2) Immediately after the rats were anesthetized, their right hind limb sciatic nerves were dissected through an incision, in which the biceps femoris muscle was dissected for locating the most proximal site to the trifurcation of the sciatic nerve, and to apply four loose ligations with silk thread.
(§3) Once the surgery was finished, the muscle was sutured with absorbable thread, and the skin was sutured with silk thread. Sham surgery in rats was performed likewise, although without ligating the sciatic nerve. All procedures were performed under aseptic conditions. The degree of hyperalgesia and allodynia in rats subjected to sciatic nerve surgery was determined using the Von Frey test (mechanical hyperalgesia) and the acetone test (cold allodynia).
Von Frey test (mechanic hyperalgesia). Rats were placed over a metallic mesh in a clear acrylic box and remained in the box at least 10 minutes before the test, in order to allow the rats to adapt to the environment. The response was determined by means of a tactile stimulus on the sole callosities of the right hindlimb with the 15-gram Von Frey filament. Ten stimuli were applied (one stimulus approximately every 3 seconds), and the response percentage was obtained (% response=number of responses/10 ×100).
(§4) In a first stage, the experimental design of the groups and the experiments were performed as follows: • a) Several groups of 6 animals with neuropathic pain (sciatic nerve ligation) were formed.
It was decided to base assessments on 6 doses of the pregabalin DRCs (0.0316, 0.1, 0.316, 1.0, 3.16 and 10 mg/Kg) and to combine them with 4 different S-ketorolac doses (0.0316, 0.10, 0.316 and 1.0 mg/Kg p.o.).

The subject of assay [2] is cold allodynia in rats with chronic constriction injury (CCI) of the sciatic nerve. Briefly: Acetone test (cold allodynia) in rats with chronic constriction injury of the sciatic nerve (Bennett and Xie model). Type of assay: in vivo, Male Wistar rats. Conditions: for anti-allodynic effect: oral, temporal course 0-180 min; for dose dependence of anti-allodynic effects: given orally, alone; for Anti-allodynic efficacy: Maximal efficacy (AUC: X ± SE): most efficacious dose po: Pregabalin 31.6 mg/Kg, S-ketorolac 1.0 mg/Kg, AUC of 180-min temporal course, maximum possible 300 au, n=6; for maximal anti-allodynic effect (AUC): pregabalin 31.6 mg/Kg po, S-Ket 1.0 mg/Kg po, 180-min temporal course; for Anti-allodynic efficacy: Relative efficacy: relative to pregabalin, Pregabalin 31.6 mg/Kg po, S-ketorolac 1.0 mg/Kg po. How it is done: as §1, §2, §3
The acetone test (cold allodynia) was performed and assessed as follows: Once the Von Frey test was finished, rats were left to rest over the metallic mesh, and after a 5-10 minute period, 0.1 mL of acetone was applied on the sole callosities of the right hindlimb with a syringe with a flexible plastic point from under the mesh. Then, a chronometer recorded the time in seconds in which the animals kept the hindlimb away from the mesh during the first 60 seconds after being exposed to acetone. The response time of the right hindlimb was measured. Three measurements were made (1 measurement every 2 minutes).
as §4
All combinations to be assessed were designed. It was decided to evaluate combinations with 24 different proportions, to have the fullest possible notion of the interaction of these 2 analgesics, and for obtaining and determining the optimal combinations in terms of efficacy and anti-allodynic potentiation.

Where [3] appears, read: pregabalin 10.0 mg/Kg po alone, reached 3 h after administration.

Turning to `CC(C)C[C@H](CN)CC(=O)O` [Pregabalin, (3S)-3-(aminomethyl)-5-methylhexanoic acid], in assay [1], the “dose dependence of anti-hyperalgesic effects” value was “dose-dependent anti-hyperalgesic effects”, the “Antihyperalgesic efficacy: Maximal efficacy (AUC: X ± SE)” value is listed as 220.4 ± 12.3, the “maximal antihyperalgesic effect (AUC)” value stood at 220.4±12.3 ua and the “Antihyperalgesic efficacy: Relative efficacy” value amounted to 1.0. Moreover, the “more anti-hyperalgesia than S-ketorolac” value in assay [1] (most effective oral doses given alone) is reported as 49%. Besides, the “antihyperalgesic effect” value in assay [1] (pregabalin 0.316 mg/Kg po alone, over the assessment period) is recorded as “practically no antihyperalgesic effects”. In assay [1] (setting [3]), the “antihyperalgesic Emax” value is listed as 78.3±5.4%. Further, in assay [2] (0.0316 mg/Kg dose), the “anti-allodynic effect” value was “almost no anti-allodynic effect”. Further, the “anti-allodynic effect” value in assay [2] (31.6 mg/Kg dose) is given as “significant anti-allodynic effect”. In assay [2], the “dose dependence of anti-allodynic effects” value was “dose-dependent anti-allodynic effects”, the “Anti-allodynic efficacy: Maximal efficacy (AUC: X ± SE)” value worked out at 241.6 ± 9.5, the “maximal anti-allodynic effect (AUC)” value is 241.6±9.5 ua and the “Anti-allodynic efficacy: Relative efficacy” value worked out at 1.0. Further, the “anti-allodynic Emax” value in assay [2] (setting [3]) is listed as 83.4±3.7%.

For `O=C(c1ccccc1)c1ccc2n1CCC2C(=O)O` (centres unmarked) [S-ketorolac, 5-Benzoyl-2,3-dihydro-1H-pyrrolizine-1-carboxylic acid], in assay [1] (S-ketorolac 1.0 mg/Kg po alone), the “antihyperalgesic effect” value was “little antihyperalgesic effect”. Also, the “antihyperalgesic Emax” value in assay [1] (S-ketorolac 1.0 mg/Kg po alone, reached 60 minutes after administration) was 40.0±5.8%. For the same molecule, the “antihyperalgesic efficacy as percent of that delivered by pregabalin” value in assay [1] (S-ketorolac 3.16 mg/Kg po vs pregabalin 31.6 mg/Kg po) was found to be 51%. Further, in assay [1], the “dose dependence of anti-hyperalgesic effects” value was “dose-dependent anti-hyperalgesic effects”, the “Antihyperalgesic efficacy: Maximal efficacy (AUC: X ± SE)” value was determined as 112.5 ± 3.5, the “maximal antihyperalgesic effect (AUC)” value was found to be 112.5±3.5 ua and the “Antihyperalgesic efficacy: Relative efficacy” value came out at 0.51. For the same molecule, the “anti-allodynic effect” value in assay [2] (0.0316 mg/Kg dose) is recorded as “almost no anti-allodynic effect”. For the same molecule, the “anti-allodynic effect” value in assay [2] (1.0 mg/Kg dose) is on record as “significant anti-allodynic effect”. Also, the “anti-allodynic Emax” value in assay [2] (S-ketorolac 0.316 mg/Kg po alone, reached 30 minutes after administration) is given as 44.0±7.7%. Further, in assay [2] (S-ketorolac 1.0 mg/Kg po vs pregabalin 31.6 mg/Kg po), the “anti-allodynic efficacy as percent of that induced by oral pregabalin” value turned out to be 46%. Moreover, in assay [2], the “dose dependence of anti-allodynic effects” value is “dose-dependent anti-allodynic effects”, the “Anti-allodynic efficacy: Maximal efficacy (AUC: X ± SE)” value was 111.2 ± 20.3, the “maximal anti-allodynic effect (AUC)” value was 111.2±20.3 ua and the “Anti-allodynic efficacy: Relative efficacy” value is 0.46.
